The target of one experiment is T1, BRM (Homo sapiens, UniProt P51531).
T1 construct: made in house; host or cells: High Five insect cells
Nature of the experiment: ATPase catalytic activity of BRM, ADP-Glo in vitro biochemical assay. Particulars: for IC50: ADP-Glo ATPase assay, 30 nM BRM, 400 μM ATP; for Ratio* (BRG1 IC50 (μM) divided by BRM IC50 (μM)): selectivity ratio BRG1 IC50 / BRM IC50. A digest of the protocol: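 Recombinant BRM (30 nM) hydrolysed 400 μM ATP with 20 nM salmon sperm DNA in pH 8 Tris buffer containing 20 mM MgCl2, 50 mM NaCl, 0.1% Tween-20 and 1 mM DTT, 1 h at room temperature. ADP formed was quantified by ADP-Glo luminescence.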
For orientation: ADP-Glo turns the ADP formed in a reaction into a luminescent signal.

Another experiment deals with T2, BRG-1 (Homo sapiens, UniProt P51532).
T2 construct: made in house; host or cells: High Five insect cells
Nature of the experiment: ATPase catalytic activity of BRG-1, ADP-Glo in vitro biochemical assay. Particulars: ADP-Glo ATPase assay, 30 nM BRG-1, 400 μM ATP; read-out: BRG1 IC50. A digest of the protocol: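 BRG-1 ATPase activity was measured by ADP-Glo. Unconsumed ATP was depleted for 40 min at room temperature, then ADP was converted to ATP for 60 min and read as luminescence.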

T1 sequence (P51531 whole entry): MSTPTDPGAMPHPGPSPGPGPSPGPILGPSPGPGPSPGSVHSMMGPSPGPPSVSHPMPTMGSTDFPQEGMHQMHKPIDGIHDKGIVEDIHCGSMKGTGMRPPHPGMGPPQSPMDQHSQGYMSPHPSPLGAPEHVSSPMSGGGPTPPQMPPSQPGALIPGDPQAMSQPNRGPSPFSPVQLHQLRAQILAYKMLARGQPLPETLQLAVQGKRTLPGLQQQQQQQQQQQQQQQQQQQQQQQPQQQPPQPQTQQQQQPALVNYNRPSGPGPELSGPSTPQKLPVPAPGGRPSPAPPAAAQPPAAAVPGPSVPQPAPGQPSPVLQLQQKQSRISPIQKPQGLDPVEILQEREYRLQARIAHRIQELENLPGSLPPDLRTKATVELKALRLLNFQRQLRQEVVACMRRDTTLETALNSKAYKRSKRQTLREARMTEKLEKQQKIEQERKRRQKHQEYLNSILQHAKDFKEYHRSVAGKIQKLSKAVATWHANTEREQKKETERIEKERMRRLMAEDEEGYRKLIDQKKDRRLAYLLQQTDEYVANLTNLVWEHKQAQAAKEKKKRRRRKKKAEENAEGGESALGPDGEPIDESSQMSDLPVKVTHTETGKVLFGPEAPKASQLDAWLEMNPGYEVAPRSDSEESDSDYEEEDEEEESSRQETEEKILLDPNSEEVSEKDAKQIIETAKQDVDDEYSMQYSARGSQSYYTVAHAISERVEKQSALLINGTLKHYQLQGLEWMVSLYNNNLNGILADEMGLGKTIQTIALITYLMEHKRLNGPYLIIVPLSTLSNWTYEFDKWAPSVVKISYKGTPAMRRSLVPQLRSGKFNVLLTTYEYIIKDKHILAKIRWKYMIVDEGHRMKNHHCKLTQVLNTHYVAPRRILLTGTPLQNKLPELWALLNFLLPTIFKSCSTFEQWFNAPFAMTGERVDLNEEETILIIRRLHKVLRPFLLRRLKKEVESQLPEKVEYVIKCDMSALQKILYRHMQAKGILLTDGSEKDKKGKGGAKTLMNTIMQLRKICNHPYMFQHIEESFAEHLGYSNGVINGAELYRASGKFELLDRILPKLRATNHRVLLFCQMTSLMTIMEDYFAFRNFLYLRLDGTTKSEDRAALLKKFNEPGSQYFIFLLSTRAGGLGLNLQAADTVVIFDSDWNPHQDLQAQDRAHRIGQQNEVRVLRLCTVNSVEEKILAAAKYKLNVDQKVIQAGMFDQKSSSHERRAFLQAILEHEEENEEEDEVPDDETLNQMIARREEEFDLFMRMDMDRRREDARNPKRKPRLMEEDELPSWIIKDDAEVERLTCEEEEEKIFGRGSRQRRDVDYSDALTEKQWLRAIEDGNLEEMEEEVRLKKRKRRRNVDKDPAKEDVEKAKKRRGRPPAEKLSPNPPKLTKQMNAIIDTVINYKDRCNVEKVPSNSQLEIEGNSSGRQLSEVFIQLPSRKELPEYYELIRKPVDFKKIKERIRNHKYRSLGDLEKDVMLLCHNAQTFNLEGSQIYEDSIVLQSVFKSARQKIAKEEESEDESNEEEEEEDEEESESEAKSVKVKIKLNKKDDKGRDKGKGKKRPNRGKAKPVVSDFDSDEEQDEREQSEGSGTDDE
T2 sequence (P51532 whole entry): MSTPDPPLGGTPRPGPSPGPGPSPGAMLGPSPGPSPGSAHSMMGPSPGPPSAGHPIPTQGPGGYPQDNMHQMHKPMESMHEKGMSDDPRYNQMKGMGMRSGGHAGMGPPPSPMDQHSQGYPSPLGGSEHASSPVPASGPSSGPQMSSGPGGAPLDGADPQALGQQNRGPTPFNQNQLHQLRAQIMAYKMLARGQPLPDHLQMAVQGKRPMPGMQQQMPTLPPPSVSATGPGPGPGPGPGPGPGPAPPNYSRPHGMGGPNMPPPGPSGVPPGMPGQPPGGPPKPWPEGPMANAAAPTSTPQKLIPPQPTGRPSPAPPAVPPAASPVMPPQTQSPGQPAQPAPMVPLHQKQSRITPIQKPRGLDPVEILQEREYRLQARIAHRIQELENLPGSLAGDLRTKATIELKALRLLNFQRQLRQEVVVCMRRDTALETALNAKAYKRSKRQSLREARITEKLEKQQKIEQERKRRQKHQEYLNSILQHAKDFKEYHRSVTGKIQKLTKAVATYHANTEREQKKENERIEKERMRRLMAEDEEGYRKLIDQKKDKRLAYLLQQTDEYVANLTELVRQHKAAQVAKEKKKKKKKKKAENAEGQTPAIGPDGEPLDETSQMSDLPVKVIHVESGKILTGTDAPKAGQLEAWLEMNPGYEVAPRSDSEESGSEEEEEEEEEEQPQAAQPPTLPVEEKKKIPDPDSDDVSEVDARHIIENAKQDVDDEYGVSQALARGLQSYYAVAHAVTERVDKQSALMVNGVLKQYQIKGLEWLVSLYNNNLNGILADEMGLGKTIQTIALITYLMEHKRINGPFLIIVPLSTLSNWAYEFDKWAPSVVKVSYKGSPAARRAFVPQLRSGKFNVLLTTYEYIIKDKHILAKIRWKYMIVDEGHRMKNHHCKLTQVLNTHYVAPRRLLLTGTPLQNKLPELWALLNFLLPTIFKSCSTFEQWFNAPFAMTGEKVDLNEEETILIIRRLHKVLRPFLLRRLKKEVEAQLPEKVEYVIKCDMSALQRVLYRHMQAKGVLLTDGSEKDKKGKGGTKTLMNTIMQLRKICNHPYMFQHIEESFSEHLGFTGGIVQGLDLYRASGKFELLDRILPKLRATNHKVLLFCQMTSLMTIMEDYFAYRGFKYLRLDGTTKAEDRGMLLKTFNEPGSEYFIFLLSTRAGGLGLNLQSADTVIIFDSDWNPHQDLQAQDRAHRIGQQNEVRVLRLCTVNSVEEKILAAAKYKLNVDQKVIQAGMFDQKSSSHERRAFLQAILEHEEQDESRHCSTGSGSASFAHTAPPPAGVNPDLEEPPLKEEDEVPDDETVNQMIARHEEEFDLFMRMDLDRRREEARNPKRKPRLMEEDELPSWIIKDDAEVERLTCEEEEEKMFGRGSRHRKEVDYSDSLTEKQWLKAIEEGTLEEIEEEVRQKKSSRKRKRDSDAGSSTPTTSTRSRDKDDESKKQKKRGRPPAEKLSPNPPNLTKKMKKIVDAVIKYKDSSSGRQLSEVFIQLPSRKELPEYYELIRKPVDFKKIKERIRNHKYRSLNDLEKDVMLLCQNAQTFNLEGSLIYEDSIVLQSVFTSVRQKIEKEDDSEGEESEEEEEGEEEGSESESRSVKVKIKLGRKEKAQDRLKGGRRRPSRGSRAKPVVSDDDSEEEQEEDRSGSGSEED

A word on the IC50: it is the concentration at which inhibition is half-maximal. For the compound `COCCN(C)c1cccc(-c2ccc3cnc(CNC(=O)c4cc(F)c5c(c4)S(=O)(=O)CCOC5)cc3n2)n1` [Compound 100], on BRM, it took 8 nM to reach half-maximal inhibition (IC50) and the “Ratio* (BRG1 IC50 (μM) divided by BRM IC50 (μM))” value was found to be 11.83. Further, at BRG-1, the IC50 is 94.1 nM.
As to `Cc1cc(C(=O)NCc2cc3nc(-c4cccc(N5C[C@@H](C)O[C@@H](C)C5)n4)ccc3cn2)cc2c1COCCS2(=O)=O` [Compound 101], the half-maximal inhibitory concentration (IC50) at BRM turned out to be 7.9 nM; on BRG-1, 57.7 nM. Also, the “Ratio* (BRG1 IC50 (μM) divided by BRM IC50 (μM))” value on BRM came to 7.32.
On the same counts, the results for `COc1cc(Cl)ccc1-c1ccc2cnc(CNC(=O)c3ccc4c(c3)S(=O)(=O)CCOC4)cc2n1` [Compound 102] are 18.7 nM, 143 nM and 7.68.
In the case of `O=C(NCc1cc2nc(-c3cccc(OCC(F)F)c3)ccc2cn1)c1ccc2c(c1)S(=O)(=O)CCOC2` [Compound 103], the 50% inhibitory concentration (IC50) stood at 252 nM against BRM and 2770 nM on BRG-1. For the same compound, the “Ratio* (BRG1 IC50 (μM) divided by BRM IC50 (μM))” value on BRM is listed as 10.96.
`C[C@@H]1COC[C@H](C)N1c1cccc(-c2ccc3cnc(CNC(=O)c4ccc5c(c4)S(=O)(=O)CCOC5)cc3n2)n1` [Compound 104]: the half-maximal inhibitory concentration (IC50) turned out to be 203 nM against BRM and 903 nM on BRG-1. For the same compound, at BRM, the “Ratio* (BRG1 IC50 (μM) divided by BRM IC50 (μM))” value is 4.45.
As for `COCCN(C)c1cccc(-c2ccc3cnc(CNC(=O)c4cnc(C(F)F)c(S(C)(=O)=O)c4)cc3n2)n1` [Compound 105], at BRM, the IC50 is 69.9 nM and the “Ratio* (BRG1 IC50 (μM) divided by BRM IC50 (μM))” value turned out to be 13.41. In addition, the IC50 on BRG-1 stood at 937 nM.
Consider `CO[C@H]1C[C@H](c2cccc(-c3ccc4cnc(CNC(=O)c5ccc6c(c5)S(=O)(=O)CCOC6)cc4n3)n2)C1` [Compound 106], for which, at BRM, the IC50 worked out at 76.1 nM and the “Ratio* (BRG1 IC50 (μM) divided by BRM IC50 (μM))” value is listed as 8.76. For the same compound, the 50% inhibitory concentration (IC50) at BRG-1 came out at 667 nM.
On the same counts, the results for `Cc1ncc(C(=O)NCc2cc3nc(-c4cccc(N5C[C@@H](C)O[C@@H](C)C5)n4)ccc3cn2)cc1S(C)(=O)=O` [Compound 107] are 5.6 nM, 9.98 and 56 nM.
On to `CN(c1ccccn1)c1ccc2cnc(CNC(=O)c3ccc4c(c3)S(=O)(=O)CCOC4)cc2n1` [Compound 108], for which, at BRM, 672 nM corresponded to half-maximal inhibition (IC50) and the “Ratio* (BRG1 IC50 (μM) divided by BRM IC50 (μM))” value worked out at 7.43. Further, the IC50 on BRG-1 worked out at 5000 nM.
On the same counts, the results for `COCCN1CCCc2ccc(-c3ccc4cnc(CNC(=O)c5ccc6c(c5)S(=O)(=O)CCOC6)cc4n3)nc21` [Compound 109] are 16.9 nM, 7.52 and 127 nM.
On the same counts, the results for `COCCN(C)c1cccc(-c2ccc3cnc(CNC(=O)c4ccc(C(F)F)c(S(C)(=O)=O)c4)cc3n2)n1` [Compound 110] are 20.9 nM, 19.51 and 407 nM.
On the same counts, the results for `C[C@@H]1CN(c2nc(-c3ccc4cnc(CNC(=O)c5ccc6c(c5)S(=O)(=O)CCOC6)cc4n3)ccc2F)C[C@H](C)O1` [Compound 111] are 6 nM, 4.58 and 27.4 nM.
As for `C[C@@H]1CN(c2cccc(-c3ccc4cnc(CNC(=O)c5ccc6c(c5)S(=O)(=O)CCOC6)cc4n3)c2)C[C@H](C)O1` [Compound 112], the concentration for half-maximal inhibition (IC50) at BRM was 12.9 nM; on BRG-1 it was 176 nM. Moreover, the “Ratio* (BRG1 IC50 (μM) divided by BRM IC50 (μM))” value on BRM came out at 13.71.
On the same counts, the results for `CO[C@H]1C[C@@H](c2cccc(-c3ccc4cnc(CNC(=O)c5ccc6c(c5)S(=O)(=O)CCOC6)cc4n3)n2)C1` [Compound 113] are 59.5 nM, 583 nM and 9.79.
Regarding `COCc1c(Cl)cc(C(=O)NCc2cc3nc(-c4cccc(N5C[C@@H](C)O[C@@H](C)C5)n4)ccc3cn2)cc1S(C)(=O)=O` [Compound 114], on BRM, the IC50 is 70.8 nM and the “Ratio* (BRG1 IC50 (μM) divided by BRM IC50 (μM))” value was determined as 22.76. Further, the IC50 on BRG-1 amounted to 1610 nM.
On the same counts, the results for `CN(CC(F)F)c1cccc(-c2ccc3cnc(CNC(=O)c4ccc5c(c4)S(=O)(=O)CCOC5)cc3n2)n1` [Compound 115] are 23.5 nM, 10.05 and 236 nM.
For the compound `CN(c1cccc(-c2ccc3cnc(CNC(=O)c4ccc5c(c4)S(=O)(=O)CCOC5)cc3n2)n1)[C@@H]1CCOC1` [Compound 116], on BRM, the IC50 was determined as 22.6 nM and the “Ratio* (BRG1 IC50 (μM) divided by BRM IC50 (μM))” value came out at 10.43. Besides, the IC50 at BRG-1 came out at 236 nM.
On the same counts, the results for `CN(c1cccc(-c2ccc3cnc(CNC(=O)c4ccc5c(c4)S(=O)(=O)CCOC5)cc3n2)n1)[C@H]1CCOC1` [Compound 117] are 44.6 nM, 7.01 and 313 nM.
On the same counts, the results for `COc1cc(C(F)F)ccc1-c1ccc2cnc(CNC(=O)c3ccc4c(c3)S(=O)(=O)CCOC4)cc2n1` [Compound 118] are 24.9 nM, 10.11 and 252 nM.
On the same counts, the results for `O=C(NCc1cc2nc(-c3ccc4c(n3)N(CC(F)F)CC4)ccc2cn1)c1ccc2c(c1)S(=O)(=O)CCOC2` [Compound 119] are 40 nM, 5.53 and 221 nM.
Turning to `O=C(NCc1cc2nc(-c3cccc(C4(CF)CC4)n3)ccc2cn1)c1ccc2c(c1)S(=O)(=O)CCOC2` [Compound 120], the IC50 at BRM was 44.7 nM; at BRG-1, 469 nM. Moreover, the “Ratio* (BRG1 IC50 (μM) divided by BRM IC50 (μM))” value at BRM was 10.48.
Consider `C[C@@H]1CN(c2cccc(-c3ccc4cnc([C@@H](C)NC(=O)c5ccc6c(c5)S(=O)(=O)CCOC6)cc4n3)n2)C[C@H](C)O1` [Compound 121], for which, at BRM, the IC50 was 86.7 nM and the “Ratio* (BRG1 IC50 (μM) divided by BRM IC50 (μM))” value was found to be 5.73. For the same compound, on BRG-1, the 50% inhibitory concentration (IC50) stood at 497 nM.
On the same counts, the results for `C[C@@H]1CN(c2cccc(-c3ccc4cnc([C@H](C)NC(=O)c5ccc6c(c5)S(=O)(=O)CCOC6)cc4n3)n2)C[C@H](C)O1` [Compound 122] are 10.3 nM, 6.56 and 67.7 nM.
On the same counts, the results for `CS(=O)(=O)c1cc(C(=O)NCc2cc3nc(-c4cccc(N5CC[C@@H]6OCC[C@H]6C5)n4)ccc3cn2)ccc1C(F)F` [Compound 123] are 23.2 nM, 12.51 and 290 nM.
On the same counts, the results for `CS(=O)(=O)c1cc(C(=O)NCc2cc3nc(-c4cccc(N5CC[C@H]6OCC[C@@H]6C5)n4)ccc3cn2)ccc1C(F)F` [Compound 124] are 37.8 nM, 14.29 and 541 nM.
Consider `COCCCN(C)c1cccc(-c2ccc3cnc(CNC(=O)c4ccc5c(c4)S(=O)(=O)CCOC5)cc3n2)n1` [Compound 125], for which, on BRM, half-maximal inhibition (IC50) required 18.3 nM and the “Ratio* (BRG1 IC50 (μM) divided by BRM IC50 (μM))” value is on record as 12.26. Besides, at BRG-1, the IC50 is 224 nM.
On the same counts, the results for `CC(F)(F)COc1cccc(-c2ccc3cnc(CNC(=O)c4ccc5c(c4)S(=O)(=O)CCOC5)cc3n2)n1` [Compound 126] are 33.5 nM, 8.80 and 295 nM.
On the same counts, the results for `O=C(NCc1cc2nc(-c3cccc4c3CCCN4CC(F)F)ccc2cn1)c1ccc2c(c1)S(=O)(=O)CCOC2` [Compound 127] are 846 nM, 4.79 and 4050 nM.
Consider `O=C(NCc1cc2nc(-c3cccc(N4CC5(C4)CC5(F)F)n3)ccc2cn1)c1ccc2c(c1)S(=O)(=O)CCOC2` [Compound 128], for which, on BRM, the IC50 was 42.6 nM and the “Ratio* (BRG1 IC50 (μM) divided by BRM IC50 (μM))” value stood at 10.99. For the same compound, the IC50 on BRG-1 was 468 nM.
As for `Cc1cc2c(-c3ccc4cnc(CNC(=O)c5ccc(Cl)c(S(C)(=O)=O)c5)cc4n3)cccc2n1C` [Compound 129], at BRM, the half-inhibitory concentration (IC50) came to 47.9 nM and the “Ratio* (BRG1 IC50 (μM) divided by BRM IC50 (μM))” value turned out to be 11.91. Further, the half-inhibitory concentration (IC50) at BRG-1 came to 570 nM.
On the same counts, the results for `Cc1cc2c(-c3ccc4cnc(CNC(=O)c5ccc6c(c5)S(=O)(=O)CCOC6)cc4n3)cccc2n1C` [Compound 130] are 10.7 nM, 9.77 and 104 nM.
Take `O=C(NCc1cc2nc(-c3cccc4c3OCCN4CC(F)F)ccc2cn1)c1ccc2c(c1)S(=O)(=O)CCOC2` [Compound 131]: on BRM, the midpoint of inhibition, the IC50, lay at 71.6 nM and the “Ratio* (BRG1 IC50 (μM) divided by BRM IC50 (μM))” value is recorded as 7.12. Also, the concentration for half-maximal inhibition (IC50) on BRG-1 stood at 510 nM.
On the same counts, the results for `C[C@@H]1CN(c2cccc(-c3ccc4cnc(CNC(=O)c5cnc(C(F)F)c(S(C)(=O)=O)c5)cc4n3)n2)C[C@H](C)O1` [Compound 132] are 12.5 nM, 16.30 and 204 nM.
Turning to `O=C(NCc1cc2nc(-c3cccc(C4CCOCC4)n3)ccc2cn1)c1ccc2c(c1)S(=O)(=O)CCOC2` [Compound 133], the figures for the concentration for half-maximal inhibition (IC50) against BRM and on BRG-1 were 61.5 nM and 487 nM, respectively. For the same compound, the “Ratio* (BRG1 IC50 (μM) divided by BRM IC50 (μM))” value at BRM worked out at 7.91.
As to `COc1nn([C@H]2C[C@@H](F)C2)cc1-c1ccc2cnc(CNC(=O)c3ccc4c(c3)S(=O)(=O)CCOC4)cc2c1` [Compound 134], the values for the IC50 at BRM and on BRG-1 were 186 nM and 2460 nM, respectively. Moreover, the “Ratio* (BRG1 IC50 (μM) divided by BRM IC50 (μM))” value at BRM is 13.28.
Turning to `COCCOc1cccc(-c2ccc3cnc(CNC(=O)c4ccc5c(c4)S(=O)(=O)CCOC5)cc3n2)c1` [Compound 135], at BRM, the IC50 amounted to 112 nM and the “Ratio* (BRG1 IC50 (μM) divided by BRM IC50 (μM))” value was 9.48. Also, the IC50 on BRG-1 was determined as 1060 nM.

These data come from US20230416248A1, “COMPOUNDS AND USES THEREOF” (Foghorn Therapeutics Inc., priority 2020, published 2023).
